One test relates to NF-κB. The experiment in a line: NF-κB luciferase reporter assay in RAW 264.7 macrophages. Format: cell-based. The note with it: Mus musculus, RAW264.7; RAW 264.7 reporter cells, 2 hour pretreatment, 200 ng/ml LPS for 3 hours; read-out: NF-kB inhibitory activity IC50. The procedure: RAW 264.7 cells stably expressing a 3× NFkB response elemement-drive luciferase reporter were seeded into 96 well plates in sera-free medium (Optimem) 18 hours prior to compound application. Compounds of the invention were prepared by first making 100 mM stock solutions in EtOH. Stock solutions were then diluted 1:100 in low LPS FBS (Gemini BenchMark 100-106), mixed vigorously and allowed to incubate at room temperature for 30 minutes. 1:2 serial dilutions were then made in FBS supplemented with 1% EtOH, mixed vigorously, and again allowed to incubate at room temperature for 30 minutes before adding to RAW 264.7 reporter cells (final concentrations: 10% FBS, 100 uM highest compound dilution, 0.1% EtOH) for a 2 hour pretreatment prior to stimulation with LPS. Cells were then stimulated with 200 ng/ml LPS or vehicle control for 3 hours in the presence of the compounds of the invention. A set of six vehicles was left unstimulated with LPS in order to measure the assay floor. AlamarBlue viability dye (Invitrogen) was added to cells simultaneously with the delivery of LPS (final AlamarBlue concentration of 10%).
After the 3 h incubation period with LPS, cell viability was measured by reading fluorescence (excitation 550 nm, emission 595 nm) with a Perkin Elmer Victor V plate reader. Then cell media was aspirated from each well. Luciferase signal was then developed by addition of the Britelite Plus reagent (Perkin Elmer). Luciferase activity was measured with the Perkin Elmer Victor V plate reader. NF-κB activity was expressed as a percent of the vehicle control wells (stimulated with LPS). Compounds were tested at 6 dose point titrations in triplicate to determine IC50 values. Table 1 summarizes the […] values for a number of bis-fatty acid conjugates in this NF-κB luciferase reporter assay.
On the technique in general: Reporter assays use an easily measured gene product as a stand-in for the process of interest.

Test [1] has as its system ApoB secretion in HepG2 cells. Nature of the test: ApoB secretion in HepG2 cells (ELISA). Format: cell-based. The settings on record: Homo sapiens, incubated for 16 hours, FIG. 1, read-out: IC50 (concentration at which 50% of ApoB secretion is inhibited). The procedure: HepG2 cells (ATCC) are seeded at 25,000 cells per well in collagen-coated 96-well plates in growth media (DMEM with 10% fetal bovine serum). The following day, bis-fatty acid conjugates are complexed to lipoprotein-deficient fetal bovine serum at the appropriate concentration. Growth media is then removed from and the HepG2 cells are washed once with PBS. The lipoprotein-deficient FBS with the complexed bis-fatty acid conjugates is added to DMEM for a final 10% concentration. Each concentration of bis-fatty acid is tested in triplicate. Cells are incubated for 16 hours with the bis-fatty acid. Alamar Blue® (Invitrogen) is then added to the media to determine cell viability per the manufacturer's instructions. Two hours after Alamar Blue® addition, the media is removed and placed in a black 96-well plate. The plate is then read at 550 nm/590 nm to determine cell viability. The media is then used to determine ApoB concentrations using ELISA kits (Mabtech AB). Percent inhibition of ApoB secretion is determined by normalizing data to vehicle treated wells. For a given compound, an IC50 (concentration at which 50% of ApoB secretion is inhibited) can also be determined by using a 4 parameter-fit inhibition curve model (Graph Pad Prism®).

The results in this text go back to patent US20130190327A1, “BIS-FATTY ACID CONJUGATES AND THEIR USES” (CATABASIS PHARMACEUTICALS INC, priority 2010, published 2013).

Regarding `CC/C=C\C/C=C\C/C=C\C/C=C\C/C=C\C/C=C\CCC(=O)N1CCN(C(=O)CCC/C=C\C/C=C\C/C=C\C/C=C\C/C=C\CC)CC1` [I-67, (4Z,7Z,10Z,13Z,16Z,19Z)-1-[4-((5Z,8Z,11Z,14Z,17Z)-icosa-5,8,11,14,17-pentaenoyl)-piperazin-1-yl]-docosa-4,7,10,13,16,19-hexaen-1-one], in the test on NF-κB, the IC50 was less than 200 µM.

On to `CC/C=C\C/C=C\C/C=C\C/C=C\C/C=C\C/C=C\CCC(=O)NCCN(C)CCNC(=O)CC/C=C\C/C=C\C/C=C\C/C=C\C/C=C\C/C=C\CC` [I-2, (4Z,7Z,10Z,13Z,16Z,19Z)-docosa-4,7,10,13,16,19-hexaenoic acid (2-{[2-((4Z,7Z,10Z,13Z,16Z,19Z)-docosa-4,7,10,13,16,19-hexaenoylamino)-ethyl]-methyl-amino}-ethyl)-amide], for which, in the test with NF-κB, the IC50 was less than 50 µM.

In the case of `CC/C=C\C/C=C\C/C=C\C/C=C\C/C=C\CCCC(=O)O` [EPA, eicosapentaenoic acid, reference compound], in the test with NF-κB, the IC50 was more than 200 µM.

Turning to `CC/C=C\C/C=C\C/C=C\C/C=C\C/C=C\C/C=C\CCC(=O)N[C@H](C(=O)OC)[C@@H](C)OC(=O)[C@H](C)NC(=O)CCC/C=C\C/C=C\C/C=C\C/C=C\C/C=C\CC` [I-65, (2S,3R)-methyl 2-((4Z,7Z,10Z,13Z,16Z,19Z)-docosa-4,7,10,13,16,19-hexaenamido)-3-((S)-2-((5Z,8Z,11Z,14Z,17Z)-icosa-5,8,11,14,17-pentaenamido)propanoyloxy)butanoate], the IC50 in the test on NF-κB is less than 50 µM.

Regarding `CC/C=C\C/C=C\C/C=C\C/C=C\C/C=C\C/C=C\CCC(=O)NCCNC(=O)CCC/C=C\C/C=C\C/C=C\C/C=C\C/C=C\CC` [I-37, (4Z,7Z,10Z,13Z,16Z,19Z)-docosa-4,7,10,13,16,19-hexaenoic acid [2-((5Z,8Z,11Z,14Z,17Z)-icosa-5,8,11,14,17-pentaenoylamino)-ethyl]-amide], in the test with NF-κB, the IC50 was less than 200 µM.

Take `CC/C=C\C/C=C\C/C=C\C/C=C\C/C=C\C/C=C\CCC(=O)NCCNC(=O)CC/C=C\C/C=C\C/C=C\C/C=C\C/C=C\C/C=C\CC` [I-1, (4Z,7Z,10Z,13Z,16Z,19Z)-docosa-4,7,10,13,16,19-hexaenoic acid [2-((4Z,7Z,10Z,13Z,16Z,19Z)-docosa-4,7,10,13,16,19-hexaenoylamino)-ethyl]-amide]: the IC50 in the test on NF-κB is less than 200 µM.

`CC/C=C\C/C=C\C/C=C\C/C=C\C/C=C\C/C=C\CCC(=O)N[C@@H](C)C(=O)O[C@H](C)[C@H](NC(=O)CCC/C=C\C/C=C\C/C=C\C/C=C\C/C=C\CC)C(=O)OC` [I-66, (2S,3R)-methyl 3-((S)-2-((4Z,7Z,10Z,13Z,16Z,19Z)-docosa-4,7,10,13,16,19-hexaenamido)propanoyloxy)-2-((5Z,8Z,11Z,14Z,17Z)-icosa-5,8,11,14,17-pentaenamido)butanoate]: the IC50 in the test on NF-κB is less than 50 µM; in test [1], 9.5 µM.

With `CC/C=C\C/C=C\C/C=C\C/C=C\C/C=C\C/C=C\CCC(=O)NCCN(C)CCNC(=O)CCC/C=C\C/C=C\C/C=C\C/C=C\C/C=C\CC` [I-39, (4Z,7Z,10Z,13Z,16Z,19Z)-docosa-4,7,10,13,16,19-hexaenoic acid (2-{[2((5Z,8Z,11Z,14Z,17Z)-icosa-5,8,11,14,17-pentaenoylamino)-ethyl]-methyl-amino}-ethyl)-amide], in the test with NF-κB, the IC50 is less than 50 µM.

`CC/C=C\C/C=C\C/C=C\C/C=C\C/C=C\C/C=C\CCC(=O)O` [DHA, docosahexaenoic acid, reference compound]: in the test with NF-κB, the IC50 was more than 200 µM.

In the case of `CC/C=C\C/C=C\C/C=C\C/C=C\C/C=C\CCCC(=O)N[C@@H](CCCCNC(=O)CCCC[C@@H]1CCSS1)C(=O)O` [I-107, (S)-6-((R)-5-[1,2]dithiolan-3-yl-pentanoylamino)-2-((5Z,8Z,11Z,14Z,17Z)-icosa-5,8,11,14,17-pentaenoylamino)-hexanoic acid], the IC50 in the test on NF-κB was less than 200 µM.

Turning to `CC/C=C\C/C=C\C/C=C\C/C=C\C/C=C\C/C=C\CCC(=O)N[C@@H](CCCCNC(=O)CCC/C=C\C/C=C\C/C=C\C/C=C\C/C=C\CC)C(=O)O` [I-45, (S)-2-((4Z,7Z,10Z,13Z,16Z,19Z)-docosa-4,7,10,13,16,19-hexaenoylamino)-6-((5Z,8Z,11Z,14Z,17Z)-icosa-5,8,11,14,17-pentaenoylamino)-hexanoic acid], the IC50 with NF-κB was less than 50 µM.
